Some test systems named below: HT29 colon; SR leukemia; OVCAR-3 ovarian; U251 CNS; MALME-3M melanoma; OVCAR-4 ovarian; EKVX NSCLC; HOP-92 NSCLC; SK-MEL-5 melanoma; SNB-75 CNS; RPMI-8226 leukemia; SK-OV-3 ovarian; COLO 205 colon.
Assay in all cases: growth of human tumour cells (NCI), 48 h

Each structure is given as a SMILES string.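 Where inhibition never reached the appropriate level, the endpoint shown equals the highest concentration tested. Otherwise, values were interpolated linearly from a five-concentration, 48-hour dose response in 96-well plates. TGI is the concentration that stops growth completely.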 Where only a bound is given, the exact number is not on record here.

Regarding `O=S(=O)(c1cc(Cl)ccc1Cl)N1CCN(c2cccc(Cl)c2)CC1`, the TGI with HT29 colon, with SR leukemia, with OVCAR-3 ovarian, with U251 CNS, in the test with MALME-3M melanoma and in the test with OVCAR-4 ovarian was more than 100 µM each time. The TGI with EKVX NSCLC, with HOP-92 NSCLC, with SK-MEL-5 melanoma, in the test on SNB-75 CNS and in the test on RPMI-8226 leukemia was more than 100 µM throughout.
For `CC(C(=O)n1ccnc1)N1c2ccccc2Sc2ccccc21` (stereo unspecified), the TGI in the test on HT29 colon, in the test with SR leukemia, in the test on OVCAR-3 ovarian, in the test on U251 CNS, in the test with SK-OV-3 ovarian and with MALME-3M melanoma was more than 100 µM in each case. Moreover, the TGI with OVCAR-4 ovarian was more than 100 µM; in the test with COLO 205 colon, more than 100 µM; in the test on EKVX NSCLC, more than 100 µM; in the test with HOP-92 NSCLC it was 79.9 µM; in the test on SK-MEL-5 melanoma it was more than 100 µM; in the test with SNB-75 CNS, more than 100 µM. In the test with RPMI-8226 leukemia, this molecule gave a TGI of more than 100 µM.
Regarding `CS(=O)(=O)O[C@H]1[C@H](O)c2ccccc2[C@@H]1N=[N+]=[N-]`, the TGI in the test with HT29 colon, in the test with SR leukemia, with OVCAR-3 ovarian, in the test with U251 CNS, with SK-OV-3 ovarian and in the test with MALME-3M melanoma was more than 100 µM in each case. In addition, the TGI in the test on OVCAR-4 ovarian, in the test with COLO 205 colon, in the test with EKVX NSCLC, in the test on HOP-92 NSCLC, with SK-MEL-5 melanoma and with SNB-75 CNS was more than 100 µM throughout. Moreover, the TGI in the test with RPMI-8226 leukemia is more than 100 µM.
As to `CC(=O)Nc1cc2nc3n(c2cc1C)CCC3OC(C)=O` (stereo unspecified), the TGI in the test on HT29 colon, with SR leukemia, with OVCAR-3 ovarian, in the test with U251 CNS, with SK-OV-3 ovarian and in the test on MALME-3M melanoma was more than 100 µM throughout. Besides, the TGI with OVCAR-4 ovarian, in the test on COLO 205 colon, with EKVX NSCLC, with HOP-92 NSCLC, in the test on SNB-75 CNS and with RPMI-8226 leukemia was more than 100 µM each time.
In the case of `CN1CC2=C(NC(=S)NC2c2ccccc2Cl)/C(=C/c2ccccc2Cl)C1` (stereo unspecified), the TGI was more than 100 µM with HT29 colon; 70.5 µM in the test on SR leukemia; more than 100 µM in the test with OVCAR-3 ovarian; more than 100 µM in the test on U251 CNS; more than 100 µM in the test with SK-OV-3 ovarian; 74.4 µM in the test with MALME-3M melanoma. Besides, the TGI is 76.7 µM in the test with OVCAR-4 ovarian; 60.4 µM in the test on COLO 205 colon; more than 100 µM in the test on EKVX NSCLC; 99.1 µM with HOP-92 NSCLC; 32.3 µM with SK-MEL-5 melanoma; 23.8 µM with SNB-75 CNS.
Consider `CN(C)CC1CCC/C(=C\c2ccccc2)C1=O` (stereo unspecified), for which the TGI with HT29 colon was 3.18 µM; in the test with SR leukemia, more than 100 µM; in the test on OVCAR-3 ovarian, 3.75 µM; with U251 CNS, 28.7 µM; with SK-OV-3 ovarian, 34 µM; in the test on MALME-3M melanoma it was 3.46 µM. In addition, the TGI came to 3.17 µM with OVCAR-4 ovarian; 5.27 µM with COLO 205 colon; 33.7 µM in the test on EKVX NSCLC; 8.26 µM in the test with HOP-92 NSCLC; 21.4 µM in the test on SK-MEL-5 melanoma; 26.7 µM in the test on SNB-75 CNS.
For `C/C(=N/O)c1sc(-c2nc(C)c(/C(C)=N\O)s2)nc1C`, the TGI with HT29 colon, with SR leukemia, in the test with OVCAR-3 ovarian, with U251 CNS, with SK-OV-3 ovarian and in the test on MALME-3M melanoma was more than 100 µM each time. Besides, the TGI with OVCAR-4 ovarian, in the test on COLO 205 colon, with EKVX NSCLC, in the test with HOP-92 NSCLC, in the test with SK-MEL-5 melanoma and with SNB-75 CNS was more than 100 µM throughout. Moreover, in the test with RPMI-8226 leukemia, the TGI is more than 100 µM.
On to `Cc1nc2c3c(ccc2[nH]c1=O)C(=O)c1ccccc1C3=O`, for which the TGI in the test on HT29 colon, with SR leukemia, in the test on OVCAR-3 ovarian, in the test with U251 CNS, with SK-OV-3 ovarian and in the test on MALME-3M melanoma was more than 100 µM throughout. The TGI in the test with OVCAR-4 ovarian is more than 100 µM; in the test on COLO 205 colon it was more than 100 µM; in the test with EKVX NSCLC it was more than 100 µM; with HOP-92 NSCLC, more than 100 µM; with SK-MEL-5 melanoma, more than 100 µM; in the test with SNB-75 CNS, 87 µM.
As to `O=C1CC2CC(CC3(CO3)C2)C1F` (stereo unspecified), the TGI with HT29 colon, in the test with SR leukemia, in the test on U251 CNS, with SK-OV-3 ovarian, with MALME-3M melanoma and with OVCAR-4 ovarian was more than 100 µM throughout. The TGI in the test on COLO 205 colon, in the test with EKVX NSCLC, in the test on HOP-92 NSCLC, with SK-MEL-5 melanoma, in the test on SNB-75 CNS and in the test with RPMI-8226 leukemia was more than 100 µM in each case.
As for `Cc1cn(C2CCN(CC3COC(C)(C)O3)O2)c(=O)[nH]c1=O` (stereo unspecified), the TGI in the test on HT29 colon, with SR leukemia, in the test with OVCAR-3 ovarian, in the test with U251 CNS, in the test with SK-OV-3 ovarian and in the test with MALME-3M melanoma was more than 100 µM in each case. The TGI in the test with OVCAR-4 ovarian, with COLO 205 colon, with EKVX NSCLC, in the test with HOP-92 NSCLC, in the test on SK-MEL-5 melanoma and in the test on SNB-75 CNS was more than 100 µM each time. The TGI in the test on RPMI-8226 leukemia is more than 100 µM.
`COc1cc(CNc2c3ccccc3nc3ccccc23)cc(OC)c1OC`: the TGI in the test with HT29 colon came to 14.3 µM; in the test with SR leukemia, 7.58 µM; in the test on OVCAR-3 ovarian, 30.2 µM; in the test with U251 CNS it was 19.5 µM; with SK-OV-3 ovarian, 28.4 µM; in the test on MALME-3M melanoma, 12.5 µM. Further, the TGI in the test with OVCAR-4 ovarian is 20.3 µM; in the test with COLO 205 colon it was 7.14 µM; in the test on EKVX NSCLC, 21.4 µM; in the test on HOP-92 NSCLC it was 16.7 µM; in the test on SK-MEL-5 melanoma, 7.83 µM; in the test on SNB-75 CNS, 13.9 µM. This molecule also had a TGI in the test on RPMI-8226 leukemia of more than 27.3 µM.

Source of the values: PubChem BioAssay (NCI).
